Experimental data: US8669292B2, “Therapeutic formulation” (Orion Therapeutics, LLC, priority 2005, dated 2014)
≈ marks a conversion by molar mass, not a printed value. Read-outs that look alike come from different tables or passages of the source.

How the values were obtained:
Assay type in all cases: cell-based
[1] = system: HCT-116 human colon cancer cells; assay: IC50 assay (concentration-cell number study); settings: HCT-116, 120 h exposure
Procedure: Concentration-cell number studies (IC50 assay) were carried out utilizing 12 separate compositions (numbered 1-12 below) against 13 different cancer cell lines (see Table 6). […] On day 3, cells are exposed to different concentrations of the drug. Flasks are incubated for 120 h (5 d) in a 5% CO2 incubator at 37° C. and the cells harvested with trypsin, washed once with Hanks Balanced Salt Solution (HBSS) and re-suspended in HBSS containing 0.08% Trypan Blue. Both viable and dead cells are counted using a hemocytometer. Viable cell numbers are normalized to an untreated control and plotted as a function of drug concentration. The IC50 value is determined using Prism 4.0.

H125 Lung Cancer = assay: IC50 assay (concentration-cell number study); settings: 120 h exposure
Procedure: (§1) These cells are grown in 5 ml culture medium (RPMI-1640+15% Bovine Calf serum containing 1% penicillin-streptomycin, and 1% Glutamine) at 37° C. and 5% CO2 at a starting concentration of 5×10^4 cells/T25 flask. On day 3, cells are exposed to different concentrations of the drug. Flasks are incubated for 120 h (5 d) in a 5% CO2 incubator at 37° C. and the cells harvested with trypsin, washed once with Hanks Balanced Salt Solution (HBSS) and re-suspended in HBSS containing 0.08% Trypan Blue. Both viable and dead cells are counted using a hemocytometer. Viable cell numbers are normalized to an untreated control and plotted as a function of drug concentration. The IC50 value is determined using Prism 4.0.
(§2) Cell Lines utilized in IC50 Assays: HCT-116 human colon cancer cells, H125 Lung Cancer, MCF-7, Breast Cancer, MDA-235 Breast Cancer, LNCaP Prostate Cancer, OVAR-5 Ovarian Cancer, U251N Brain Cancer Sarcoma 180, Panc 01Pancreatic Cancer, CCRF-CEM Leukemia, HEP-G2 Liver Cancer, L1210 Leukemia, Colon 38 Colon Cancer.

MCF-7 Breast Cancer = assay: IC50 assay (concentration-cell number study); settings: 120 h exposure
Procedure: (§3) Concentration-cell number studies (IC50 assay) were carried out utilizing 12 separate compositions (numbered 1-12 below) against 13 different cancer cell lines (see Table 6). These cells are grown in 5 ml culture medium (RPMI-1640+15% Bovine Calf serum containing 1% penicillin-streptomycin, and 1% Glutamine) at 37° C. and 5% CO2 at a starting concentration of 5×10^4 cells/T25 flask. On day 3, cells are exposed to different concentrations of the drug. Flasks are incubated for 120 h (5 d) in a 5% CO2 incubator at 37° C. and the cells harvested with trypsin, washed once with Hanks Balanced Salt Solution (HBSS) and re-suspended in HBSS containing 0.08% Trypan Blue. Both viable and dead cells are counted using a hemocytometer. Viable cell numbers are normalized to an untreated control and plotted as a function of drug concentration. The IC50 value is determined using Prism 4.0.

MDA-235 Breast Cancer = assay: IC50 assay (concentration-cell number study); settings: 120 h exposure
Procedure: as §3

LNCaP Prostate Cancer = assay: IC50 assay (concentration-cell number study); settings: 120 h exposure
Procedure: as §3

OVAR-5 Ovarian Cancer = assay: IC50 assay (concentration-cell number study); settings: 120 h exposure
Procedure: as §3

U251N Brain Cancer = assay: IC50 assay (concentration-cell number study); settings: 120 h exposure
Procedure: as §3

Sarcoma 180 = assay: IC50 assay (concentration-cell number study); settings: 120 h exposure
Procedure: as §3

[2] = system: Panc 01 Pancreatic Cancer; assay: IC50 assay (concentration-cell number study); settings: 120 h exposure
Procedure: as §3

CCRF-CEM Leukemia = assay: IC50 assay (concentration-cell number study); settings: 120 h exposure
Procedure: as §3

HEP-G2 Liver Cancer = assay: IC50 assay (concentration-cell number study); settings: 120 h exposure
Procedure: as §3

L1210 Leukemia = assay: IC50 assay (concentration-cell number study); settings: 120 h exposure
Procedure: as §3

Colon 38 Colon Cancer = assay: IC50 assay (concentration-cell number study); settings: 120 h exposure
Procedure: as §1, §2

[3] = system: 13 different cancer cell lines; assay: IC50 assays, average or range over all cell lines; settings: average of 13 cell lines
Procedure: as §1, §2

[4] = system: HCT-116 human colon cancer cells; assay: Clonogenic dose response
Procedure: Clonogenic survival of the cells was measured by a standard tissue culture procedure.
Asimicin was prepared in ethanol. Clonogenic survival of the cells was measured by a standard tissue culture procedure.

[5] = Homo sapiens, HCT-116, 120 h, read-out: IC50

With CC(=O)O[C@H]1C(=O)[C@@]2(C)[C@H]([C@H](OC(=O)c3ccccc3)[C@]3(O)C[C@H](OC(=O)[C@H](O)[C@@H](NC(=O)c4ccccc4)c4ccccc4)C(C)=C1C3(C)C)[C@]1(OC(C)=O)CO[C@@H]1C[C@@H]2O [Taxol, reference compound] the IC50 [1, 5] was 0.2 ng/mL (≈ 0.234 nM).
CC[C@]1(O)C[C@H]2CN(CCc3c([nH]c4ccccc34)[C@@](C(=O)OC)(c3cc4c(cc3OC)N(C=O)[C@H]3[C@@](O)(C(=O)OC)[C@H](OC(C)=O)[C@]5(CC)C=CCN6CC[C@]43[C@@H]65)C2)C1 [Vincristine, reference compound] gave an IC50 [1, 5] of 5 ng/mL (≈ 6.06 nM).
In the case of O=C1O[C@H]([C@@H](O)CO)C(O)=C1O [Vitamin C, reference compound], the IC50 [1, 5] is reported as > 100000 ng/mL.
With N.N.[Cl][Pt][Cl] [cis-Platinum, reference compound] the IC50 [1] was 100 ng/mL.
Molecule Acetogenin [Composition 3] has an IC50 [1] of 2 ng/mL, an IC50 ([1]; listed as 3) of 2.0 ng/mL and an IC50 (H125 Lung Cancer) of 1.4 ng/mL. The IC50 (MCF-7 Breast Cancer) was 1.3 ng/mL, the IC50 (MDA-235 Breast Cancer) was 1.3 ng/mL and the IC50 (LNCaP Prostate Cancer) was 5.0 ng/mL. The IC50 (OVAR-5 Ovarian Cancer) was 1.8 ng/mL, the IC50 (U251N Brain Cancer) was 1.2 ng/mL and the IC50 (Sarcoma 180) was 1.2 ng/mL. The IC50 [2] was “.41 ng/mL”, the IC50 (CCRF-CEM Leukemia) was 5.2 ng/mL and the IC50 (HEP-G2 Liver Cancer) was 2.2 ng/mL. For the same molecule, the IC50 (L1210 Leukemia) was 13 ng/mL, the IC50 (Colon 38 Colon Cancer) was “.19 ng/mL” and the “IC50 AVG.” value [3] was 2.8 ng/mL.
With Asimicin the clonogenic survival ([4]; 24 h exposure, 10 micrograms/ml) was 0.1, the “effect on clonogenic survival” value ([4]; 24 h exposure, concentrations up to 1 microgram/ml) was “no effect” and the “fold greater cell killing than found with the 24 h exposure” value ([4]; 168 h versus 24 h exposure) was ~100.000 fold. For the same molecule, the “effect on the survival of the tumor cells” value ([4]; concentration of up to 10 micrograms/ml, exposure time not given) was “no effect” and the “concentration with cell survival at the 0.1 level” value ([4]; extended exposure 168 h) was 200 picograms/ml.
With Vitamin E [reference compound] the IC50 [1] was >100000 ng/mL.
